Like-named read-outs stand apart in the source and are kept apart here.
Experiments:
Rat PK = assay type: in vivo
Description: (§1) PK parameters were determined by non-compartmental analysis. Intravenous bolus studies in mouse, rat and dog were performed at 1, 1 and 0.1 mg per kg respectively (Extended Data Table 1).

logD / logP = assay type: physicochemical; conditions: for logD: 1-octanol/water, pH 7.4, 1-octanol and water at pH 7.4
MSI cancer cells = test: Clonogenic assay, 10-to-14-day; assay type: cell-based; conditions: Homo sapiens, 10-to-14-day clonogenic assay
SNUC5 = test: CFA 10-14 day clonogenic assay; assay type: cell-based; conditions: Homo sapiens
SNU407 = test: 4 day proliferation assay (CellTiter-Glo); conditions: Homo sapiens, SNU-407, 96 h, read-out: 4 day assay GI50
TGBC11TKB = test: CFA 10-14 day clonogenic assay; assay type: cell-based; conditions: Homo sapiens
HCT116 = test: 4 day proliferation assay (CellTiter-Glo)
OVK18 = test: CFA 10-14 day clonogenic assay; assay type: cell-based; conditions: Homo sapiens
LS513 = test: CFA 10-14 day clonogenic assay; assay type: cell-based; conditions: Homo sapiens, LS-513
CW2 = test: 4 day proliferation assay (CellTiter-Glo); conditions: Homo sapiens, CW-2, 96 h, read-out: 4 day assay GI50
[1] = CL in vivo, intravenous bolus; conditions: whole blood
Description: as §1

NUGC3 = test: 4 day proliferation assay (CellTiter-Glo); conditions: Homo sapiens, NUGC-3, 96 h, read-out: 4 day assay GI50
LOVO = test: 4 day proliferation assay (CellTiter-Glo); conditions: Homo sapiens, 96 h, read-out: 4 day assay GI50
DLD-1 (HCT15) = test: 4 day proliferation assay (CellTiter-Glo); conditions: Homo sapiens, 96 h, read-out: 4 day assay GI50
SW48 xenografts = test: SW48 xenograft efficacy, HRO761, irinotecan and combination; assay type: in vivo, mouse
Description: All animal studies were conducted in accordance with ethics and procedures covered by permit BS-2275 and BS-1975 issued by the Kantonales Veterinäramt Basel-Stadt and in strict adherence to guidelines of the Eidgenössisches Tierschutzgesetz and the Eidgenössische Tierschutzverordnung, Switzerland. All animal studies were approved by the internal ethics committee. All animals had access to food and water ad libitum and were identified with transponders. They were housed in a specific-pathogen-free facility in IVC racks under a 12 h–12 h light–dark cycle. To establish cell-line-derived xenograft models, 6–7-week-old female athymic nude (Crl:NU(NCr)-Foxn1^nu) or SCID-BEIGE (CB17.Cg-PrkdcscidLystbg-J/Crl) mice from Charles River were engrafted subcutaneously with 5 million tumour cells in HBSS (H6648, Sigma-Aldrich). For SNU-407, Lovo, IM95, RL95.2, Ishikawa and IGROV-1, the cells were concentrated in 50% Matrigel (354234, Corning). Patient-derived xenografts were induced and expanded by transplantation as previously described. […] For the efficacy experiment, mice were randomized into groups (n = 5–6) for a mean tumour size of 100–150 mm^3. […] Blood samples were collected on day 7 and 91. […] Tumour responses are reported with the measures of tumour volumes from the treatment start. […] Animals were randomized (n = 3) and tumour samples were collected at 0, 1, 4, 8 and 24 h on the first day and then collected 4 h after the last treatment on day 3, 8, 10, 14 (including a 24 h timepoint), 17 and 21. Tumours were excised, weighed, either frozen in liquid nitrogen and cryogenic dry pulverized with the CryoPrep system (model CP-02, Covaris) or processed to FFPE after fixation. […] On day 12, blood samples were collected for PK analysis. On the last day (3 h after the last treatment), tumours were excised, weighed, frozen in liquid nitrogen and cryogenic dry pulverized for PD analysis.

JHUEM1 = test: CFA 10-14 day clonogenic assay; assay type: cell-based; conditions: Homo sapiens
hERG = hERG (Homo sapiens, UniProt Q12809); test: hERG binding (patch clamp)
Ishikawa = test: CFA 10-14 day clonogenic assay; assay type: cell-based; conditions: Homo sapiens

hERG, sequence (Q12809 whole entry): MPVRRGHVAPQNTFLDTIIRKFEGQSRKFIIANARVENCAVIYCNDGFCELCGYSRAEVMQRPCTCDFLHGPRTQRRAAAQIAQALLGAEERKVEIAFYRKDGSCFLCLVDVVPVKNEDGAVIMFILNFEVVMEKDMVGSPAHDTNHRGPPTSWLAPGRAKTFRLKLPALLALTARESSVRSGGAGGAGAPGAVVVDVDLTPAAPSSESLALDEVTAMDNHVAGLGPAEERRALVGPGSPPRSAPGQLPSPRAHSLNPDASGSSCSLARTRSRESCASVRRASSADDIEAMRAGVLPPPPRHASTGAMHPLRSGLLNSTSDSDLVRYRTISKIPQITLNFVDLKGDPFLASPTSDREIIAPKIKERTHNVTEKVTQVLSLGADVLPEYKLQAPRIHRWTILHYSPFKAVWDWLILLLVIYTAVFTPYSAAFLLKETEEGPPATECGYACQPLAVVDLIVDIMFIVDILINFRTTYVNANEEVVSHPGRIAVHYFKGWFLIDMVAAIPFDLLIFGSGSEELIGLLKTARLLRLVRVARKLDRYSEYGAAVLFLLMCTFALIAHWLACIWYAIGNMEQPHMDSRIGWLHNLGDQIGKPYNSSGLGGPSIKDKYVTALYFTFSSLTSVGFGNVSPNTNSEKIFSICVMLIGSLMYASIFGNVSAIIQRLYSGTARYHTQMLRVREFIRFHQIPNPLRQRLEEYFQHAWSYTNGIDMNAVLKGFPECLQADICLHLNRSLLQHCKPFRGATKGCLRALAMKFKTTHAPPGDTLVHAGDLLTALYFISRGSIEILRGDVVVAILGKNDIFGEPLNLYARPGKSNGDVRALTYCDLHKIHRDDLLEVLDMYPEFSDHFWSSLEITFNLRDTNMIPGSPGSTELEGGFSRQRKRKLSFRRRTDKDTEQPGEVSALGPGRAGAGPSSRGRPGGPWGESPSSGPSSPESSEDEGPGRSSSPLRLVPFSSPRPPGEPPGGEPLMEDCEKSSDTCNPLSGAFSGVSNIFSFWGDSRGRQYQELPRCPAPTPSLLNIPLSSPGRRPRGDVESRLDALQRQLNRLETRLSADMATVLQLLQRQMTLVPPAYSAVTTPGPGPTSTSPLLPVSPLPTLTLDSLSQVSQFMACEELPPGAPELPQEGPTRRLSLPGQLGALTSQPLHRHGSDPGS

## CCc1c(N2CCN(C(=O)c3ncccc3O)CC2)c(=O)n2nc(C3=CCOCC3)nc2n1CC(=O)Nc1ccc(C(F)(F)F)cc1C [compound 3]
Rat PK
  Rat PK, oral bioavailability (F): 20 % F
logD / logP
  logD: 2.9

## CCc1c(N2CCN(C(=O)c3ncnc(C)c3O)CC2)c(=O)n2nc(C3=CCOCC3)nc2n1CC(=O)Nc1ccc(C(F)(F)F)cc1Cl [HRO761]
MSI cancer cells
  GI50: 50 to 1000 nM
SNUC5
  GI50: 418 nM
Rat PK
  Rat PK, oral bioavailability (F): 74 % F
SNU407
  GI50: 440 nM
TGBC11TKB
  GI50: 44 nM
HCT116; Homo sapiens, HCT-116, 96 h, read-out: 4 day assay GI50, HCT116
  GI50: 116 nM
HCT116; read-out: 4 day assay GI50, HCT116
  GI50: 143 nM
OVK18
  GI50: 150 nM
LS513
  GI50: ≥ 10000 nM
CW2
  GI50: 112 nM
[1]; 0.1 mg/kg, dog, intravenous bolus 0.1 mg per kg
  clearance: 4.3 mL/min/kg
[1]; 1 mg/kg, mouse, intravenous bolus 1 mg per kg
  clearance: 29 mL/min/kg
[1]; 1 mg/kg, rat, intravenous bolus 1 mg per kg
  clearance: 5.3 mL/min/kg
NUGC3
  GI50: ≥ 10000 nM
logD / logP
  logP: 3.4
  logD: 1.8
LOVO
  GI50: 1240 nM
DLD-1 (HCT15)
  GI50: ≥ 10000 nM
SW48 xenografts; HRO761 20mg/kg, day 0 post 1st dose
  Mean TVol (mm3): 247.56 mm3
SW48 xenografts; HRO761 20mg/kg, day 7 post 1st dose
  Mean TVol (mm3): 408.23 mm3
SW48 xenografts; HRO761 20mg/kg, day 14 post 1st dose
  Mean TVol (mm3): 343.04 mm3
SW48 xenografts; HRO761 20mg/kg, day 21 post 1st dose
  Mean TVol (mm3): 353.40 mm3
SW48 xenografts; HRO761 20mg/kg, day 28 post 1st dose
  Mean TVol (mm3): 598.05 mm3
SW48 xenografts; HRO761 20mg/kg, day 35 post 1st dose
  Mean TVol (mm3): 1006.91 mm3
SW48 xenografts; HRO761 20mg/kg, day 4 post 1st dose
  Mean TVol (mm3): 324.64 mm3
SW48 xenografts; HRO761 20mg/kg, day 11 post 1st dose
  Mean TVol (mm3): 389.58 mm3
SW48 xenografts; HRO761 20mg/kg, day 18 post 1st dose
  Mean TVol (mm3): 304.90 mm3
SW48 xenografts; HRO761 20mg/kg, day 25 post 1st dose
  Mean TVol (mm3): 411.31 mm3
SW48 xenografts; HRO761 20mg/kg, day 32 post 1st dose
  Mean TVol (mm3): 799.70 mm3
SW48 xenografts; HRO761 40mg/kg, day 0 post 1st dose, n=6
  Mean TVol (mm3): 170.74 mm3
SW48 xenografts; HRO761 40mg/kg, day 3 post 1st dose, n=6
  Mean TVol (mm3): 266.92 mm3
SW48 xenografts; HRO761 40mg/kg, day 7 post 1st dose, n=6
  Mean TVol (mm3): 238.47 mm3
SW48 xenografts; HRO761 40mg/kg, day 10 post 1st dose, n=6
  Mean TVol (mm3): 242.34 mm3
SW48 xenografts; HRO761 40mg/kg, day 14 post 1st dose, n=6
  Mean TVol (mm3): 187.67 mm3
SW48 xenografts; HRO761 40mg/kg, day 17 post 1st dose, n=6
  Mean TVol (mm3): 156.98 mm3
SW48 xenografts; HRO761 40mg/kg, day 21 post 1st dose, n=6
  Mean TVol (mm3): 121.57 mm3
SW48 xenografts; HRO761 40mg/kg, day 24 post 1st dose, n=6
  Mean TVol (mm3): 71.41 mm3
SW48 xenografts; HRO761 40mg/kg, day 28 post 1st dose, n=6
  Mean TVol (mm3): 43.54 mm3
SW48 xenografts; HRO761 40mg/kg, day 31 post 1st dose, n=6
  Mean TVol (mm3): 43.20 mm3
SW48 xenografts; HRO761 40mg/kg, day 35 post 1st dose, n=6
  Mean TVol (mm3): 52.04 mm3
SW48 xenografts; HRO761 40mg/kg, day 38 post 1st dose, n=6
  Mean TVol (mm3): 63.12 mm3
SW48 xenografts; HRO761 40mg/kg, day 43 post 1st dose, n=6
  Mean TVol (mm3): 108.93 mm3
SW48 xenografts; HRO761 40mg/kg, day 46 post 1st dose, n=6
  Mean TVol (mm3): 106.14 mm3
SW48 xenografts; HRO761 40mg/kg, day 49 post 1st dose, n=6
  Mean TVol (mm3): 165.61 mm3
SW48 xenografts; HRO761 40mg/kg, day 52 post 1st dose, n=6
  Mean TVol (mm3): 180.62 mm3
SW48 xenografts; HRO761 40mg/kg, day 56 post 1st dose, n=6
  Mean TVol (mm3): 250.37 mm3
SW48 xenografts; HRO761 40mg/kg, day 59 post 1st dose, n=6
  Mean TVol (mm3): 307.84 mm3
SW48 xenografts; HRO761 40mg/kg, day 63 post 1st dose, n=6
  Mean TVol (mm3): 385.98 mm3
SW48 xenografts; HRO761 40mg/kg, day 67 post 1st dose, n=6
  Mean TVol (mm3): 504.27 mm3
SW48 xenografts; HRO761 40mg/kg, day 70 post 1st dose, n=6
  Mean TVol (mm3): 521.42 mm3
SW48 xenografts; HRO761 40mg/kg, day 73 post 1st dose, n=6
  Mean TVol (mm3): 687.64 mm3
JHUEM1
  GI50: 35 nM
hERG
  IC50: > 30000 nM
Ishikawa
  GI50: 51 nM
